The values that follow come from PubChem BioAssay AID248 (DTP/NCI, 2004).

For this assay, the system named is L1210 leukemia ip in BDF1 mice, survival T/C. Description: NCI In Vivo Anticancer Drug Screen. Data for tumor model L1210 Leukemia (intraperitoneal) in B6D2F1 (BDF1) mice. As to conditions: higher = longer survival. Put shortly: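 Survival endpoint. Drug-treated group vs vehicle group, expressed as T divided by C. Tumor passaged by transplantation.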
The mark [1] stands for this setting: endpoint: mean survival time, dose: 25.0 mg/kg/injection, schedule: Q04DX002 (ip), vehicle: Klucel (hydroxypropylcellulose) (HPC).
[2] abbreviates: endpoint: mean survival time, dose: 50.0 mg/kg/injection, schedule: Q04DX002 (ip), vehicle: Klucel (hydroxypropylcellulose) (HPC).
Setting [3] is: endpoint: mean survival time, dose: 100.0 mg/kg/injection, schedule: Q04DX003 (ip), vehicle: saline.
[4] abbreviates: endpoint: mean survival time, dose: 20.0 mg/kg/injection, schedule: Q04DX003 (ip), vehicle: saline.
Setting [5] is: endpoint: mean survival time, dose: 40.0 mg/kg/injection, schedule: Q04DX003 (ip), vehicle: saline.
[6] abbreviates: endpoint: mean survival time, dose: 25.0 mg/kg/injection, schedule: Q01DX009 (ip), vehicle: Klucel (hydroxypropylcellulose) (HPC).
Setting [7] is: endpoint: mean survival time, dose: 25.0 mg/kg/injection, schedule: Q04DX003 (ip), vehicle: Klucel (hydroxypropylcellulose) (HPC).
Setting [8] is: endpoint: mean survival time, dose: 50.0 mg/kg/injection, schedule: Q01DX009 (ip), vehicle: Klucel (hydroxypropylcellulose) (HPC).
Where [9] appears, read: endpoint: mean survival time, dose: 50.0 mg/kg/injection, schedule: Q04DX003 (ip), vehicle: Klucel (hydroxypropylcellulose) (HPC).
Where [10] appears, read: endpoint: mean survival time, dose: 100.0 mg/kg/injection, schedule: Q04DX002 (ip), vehicle: Klucel (hydroxypropylcellulose) (HPC).
[11] abbreviates: endpoint: mean survival time, dose: 100.0 mg/kg/injection, schedule: Q04DX003 (ip), vehicle: Klucel (hydroxypropylcellulose) (HPC).
[12] abbreviates: endpoint: mean survival time, dose: 200.0 mg/kg/injection, schedule: Q04DX002 (ip), vehicle: Klucel (hydroxypropylcellulose) (HPC).
Where [13] appears, read: endpoint: mean survival time, dose: 100.0 mg/kg/injection, schedule: Q04DX002 (ip), vehicle: saline.

The structures appear in SMILES notation. Where “and” joins values, the source holds several entries; their conditions need not be identical. Equal values may be shown once. Inconclusive results and toxic doses are left out.

For `C=CC(=O)Nc1cccc(OC(=O)NC)c1`, the T/C was 99 % of control (endpoint: mean survival time, dose: 100.0 mg/kg/injection, schedule: Q01DX001 (ip), vehicle: saline with Tween-80); 100 % of control (endpoint: mean survival time, dose: 200.0 mg/kg/injection, schedule: Q01DX001 (ip), vehicle: saline with Tween-80); 92 % of control (endpoint: mean survival time, dose: 400.0 mg/kg/injection, schedule: Q01DX001 (ip), vehicle: saline with Tween-80).
Consider `c1ccc2c(c1)C1C3CCC(C3)C21` (stereo not given), for which the T/C (endpoint: mean survival time, dose: 100.0 mg/kg/injection, schedule: Q04DX003 (ip), vehicle: saline with Tween-80) was 98 % of control and the T/C (endpoint: mean survival time, dose: 400.0 mg/kg/injection, schedule: Q04DX003 (ip), vehicle: saline with Tween-80) was 98 % of control.
For the compound `COC(=O)C1CC2(Br)C(Br)=C(Br)C1(Br)C2(Br)Br` (stereo not given), the T/C is, setting by setting: (endpoint: mean survival time, dose: 100.0 mg/kg/injection, schedule: Q01DX001 (ip), vehicle: saline) 88 % of control; (endpoint: mean survival time, dose: 100.0 mg/kg/injection, schedule: Q01DX009 (ip), vehicle: saline) 102 % of control; (endpoint: mean survival time, dose: 200.0 mg/kg/injection, schedule: Q01DX001 (ip), vehicle: saline) 100 % of control; (endpoint: mean survival time, dose: 200.0 mg/kg/injection, schedule: Q01DX009 (ip), vehicle: saline) 98 % of control; (endpoint: mean survival time, dose: 400.0 mg/kg/injection, schedule: Q01DX001 (ip), vehicle: saline) 88 % of control; (endpoint: mean survival time, dose: 400.0 mg/kg/injection, schedule: Q01DX009 (ip), vehicle: saline) 91 % of control.
For the compound `COc1cc(Cl)ccc1N=CC(=O)c1ccc(C)cc1`, the T/C is 94 % of control (endpoint: mean survival time, dose: 12.5 mg/kg/injection, schedule: Q04DX002 (ip), vehicle: Klucel (hydroxypropylcellulose) (HPC)); 87 % of control under setting [1]; 115 % of control under setting [2].
For the compound `CCOC(=O)CCN(CC)CC`, the T/C is 97 % of control under setting [3]; 94 % of control (endpoint: mean survival time, dose: 200.0 mg/kg/injection, schedule: Q04DX003 (ip), vehicle: saline); 108 % of control (endpoint: mean survival time, dose: 400.0 mg/kg/injection, schedule: Q04DX003 (ip), vehicle: saline).
Take `COc1ccc(C(N)=S)c2ccccc12`: the T/C is, setting by setting: (endpoint: mean survival time, dose: 100.0 mg/kg/injection, schedule: Q01DX001 (ip), vehicle: Klucel (hydroxypropylcellulose) (HPC)) 105 % of control; (endpoint: mean survival time, dose: 200.0 mg/kg/injection, schedule: Q01DX001 (ip), vehicle: Klucel (hydroxypropylcellulose) (HPC)) 102 % of control; (endpoint: mean survival time, dose: 400.0 mg/kg/injection, schedule: Q01DX001 (ip), vehicle: Klucel (hydroxypropylcellulose) (HPC)) 102 % of control.
Consider `c1ccc2c(c1)CCN(C1=NCCO1)C2`, for which the T/C runs as follows: (endpoint: mean survival time, dose: 9.5 mg/kg/injection, schedule: Q01DX001 (ip), vehicle: saline) 112 % of control; (endpoint: mean survival time, dose: 10.0 mg/kg/injection, schedule: Q04DX003 (ip), vehicle: saline) 97 % of control; (endpoint: mean survival time, dose: 19.0 mg/kg/injection, schedule: Q01DX001 (ip), vehicle: saline) 100 % of control; under setting [4], 94 % of control; (endpoint: mean survival time, dose: 38.0 mg/kg/injection, schedule: Q01DX001 (ip), vehicle: saline) 101 % of control; under setting [5], 90 % of control.
Regarding `O=C(Nc1ccccc1F)Sc1c(Cl)c(Cl)nc(Cl)c1Cl`, the T/C is, setting by setting: under setting [6], 96 % of control and 101 % of control; under setting [7], 105 % of control; under setting [8], 94 % of control and 101 % of control; under setting [9], 102 % of control; under setting [10], 101 % of control and 107 % of control; under setting [11], 113 % of control. The T/C was 96 % of control and 106 % of control under setting [12]; 103 % of control and 115 % of control (endpoint: mean survival time, dose: 400.0 mg/kg/injection, schedule: Q04DX002 (ip), vehicle: Klucel (hydroxypropylcellulose) (HPC)).
Regarding `COC(=O)c1ccc(N=NN(C)C)cc1`, the T/C is, setting by setting: (endpoint: median survival time, dose: 65.0 mg/kg/injection, schedule: Q01DX001 (ip), vehicle: steriod suspending solution) 100 % of control; (endpoint: median survival time, dose: 108.0 mg/kg/injection, schedule: Q01DX001 (ip), vehicle: steriod suspending solution) 110 % of control; (endpoint: median survival time, dose: 108.0 mg/kg/injection, schedule: Q01DX009 (ip), vehicle: steriod suspending solution) 100 % of control; (endpoint: median survival time, dose: 180.0 mg/kg/injection, schedule: Q01DX001 (ip), vehicle: steriod suspending solution) 110 % of control; (endpoint: median survival time, dose: 180.0 mg/kg/injection, schedule: Q04DX003 (ip), vehicle: steriod suspending solution) 150 % of control.
For `Cc1cccc(C(=O)C=C(C(F)(F)F)C(F)(F)F)c1`, the T/C is 103 % of control (endpoint: mean survival time, dose: 12.5 mg/kg/injection, schedule: Q04DX003 (ip), vehicle: saline with Tween-80); 111 % of control (endpoint: mean survival time, dose: 25.0 mg/kg/injection, schedule: Q04DX003 (ip), vehicle: saline with Tween-80); 102 % of control and 118 % of control (endpoint: mean survival time, dose: 50.0 mg/kg/injection, schedule: Q04DX003 (ip), vehicle: saline with Tween-80).
As to `O=C(OCc1ccccc1CN1CCOCC1)c1ccc([N+](=O)[O-])cc1Cl`, the T/C runs as follows: under setting [1], 92 % of control; under setting [2], 106 % of control; under setting [10], 100 % of control.
Take `CCC(CC)(COC(N)=O)COC(N)=O`: the T/C is, setting by setting: under setting [7], 98 % of control; under setting [9], 93 % of control; under setting [11], 98 % of control; (endpoint: mean survival time, dose: 200.0 mg/kg/injection, schedule: Q04DX003 (ip), vehicle: Klucel (hydroxypropylcellulose) (HPC)) 95 % of control; (endpoint: mean survival time, dose: 400.0 mg/kg/injection, schedule: Q04DX003 (ip), vehicle: Klucel (hydroxypropylcellulose) (HPC)) 93 % of control.
On to `CC(C)CC(Br)C(=O)NC(CC(C)C)C(=O)O` (stereo not given), for which the T/C is 96 % of control (endpoint: mean survival time, dose: 100.0 mg/kg/injection, schedule: Q01DX009 (ip), vehicle: saline with Tween-80); 88 % of control (endpoint: mean survival time, dose: 200.0 mg/kg/injection, schedule: Q01DX009 (ip), vehicle: saline with Tween-80); 92 % of control (endpoint: mean survival time, dose: 400.0 mg/kg/injection, schedule: Q01DX009 (ip), vehicle: saline with Tween-80).
With `O=S(=O)(CS(=O)(=O)Oc1ccccc1)Oc1ccccc1`, the T/C by setting is: (endpoint: mean survival time, dose: 100.0 mg/kg/injection, schedule: Q01DX001 (ip), vehicle: carboxymethylcellulose (CMC)) 93 % of control; (endpoint: mean survival time, dose: 200.0 mg/kg/injection, schedule: Q01DX001 (ip), vehicle: carboxymethylcellulose (CMC)) 102 % of control; (endpoint: mean survival time, dose: 400.0 mg/kg/injection, schedule: Q01DX001 (ip), vehicle: carboxymethylcellulose (CMC)) 93 % of control.
Consider `CCCCOC(=O)c1ccc(OC(=O)Nc2ccc(OC)cc2Cl)cc1`, for which the T/C under setting [13] was 110 % of control; the T/C (endpoint: mean survival time, dose: 200.0 mg/kg/injection, schedule: Q04DX002 (ip), vehicle: saline) was 104 % of control; the T/C (endpoint: mean survival time, dose: 400.0 mg/kg/injection, schedule: Q04DX002 (ip), vehicle: saline) is 100 % of control.
Turning to `CCCNC(=O)Sc1ccc(Cl)cc1`, the T/C (endpoint: mean survival time, dose: 12.5 mg/kg/injection, schedule: Q01DX001 (ip), vehicle: Klucel (hydroxypropylcellulose) (HPC)) was 100 % of control; the T/C (endpoint: mean survival time, dose: 12.5 mg/kg/injection, schedule: Q01DX009 (ip), vehicle: Klucel (hydroxypropylcellulose) (HPC)) was 95 % of control and 110 % of control; the T/C (endpoint: mean survival time, dose: 25.0 mg/kg/injection, schedule: Q01DX001 (ip), vehicle: Klucel (hydroxypropylcellulose) (HPC)) was 95 % of control; the T/C under setting [6] is 97 % of control and 106 % of control; the T/C (endpoint: mean survival time, dose: 50.0 mg/kg/injection, schedule: Q01DX001 (ip), vehicle: Klucel (hydroxypropylcellulose) (HPC)) is 94 % of control; the T/C under setting [8] was 98 % of control. Besides, the T/C reads like this: under setting [10], 96 % of control; under setting [12], 93 % of control and 86 % of control.
`O=c1[nH]nc(-c2ccncc2)s1`: the T/C was 101 % of control under setting [4]; 96 % of control under setting [5]; 94 % of control (endpoint: mean survival time, dose: 75.0 mg/kg/injection, schedule: Q01DX001 (ip), vehicle: saline); 96 % of control (endpoint: mean survival time, dose: 75.0 mg/kg/injection, schedule: Q04DX003 (ip), vehicle: saline); 98 % of control under setting [3].
Regarding `CCOC(=O)/C(C#N)=C/c1cccn1Cc1cc2ccccc2c2ccccc12`, the T/C reads like this: (endpoint: mean survival time, dose: 25.0 mg/kg/injection, schedule: Q04DX002 (ip), vehicle: saline) 111 % of control; (endpoint: mean survival time, dose: 50.0 mg/kg/injection, schedule: Q04DX002 (ip), vehicle: saline) 111 % of control; under setting [13], 105 % of control.
